Reference: the supplement of paper PMC10733146

Key:
Assay in all cases: viability relative to DMSO control (fraction); higher = less drug effect (more viable cells)
Conditions in all cases: 48 h
[1] = test system: primary ALL patient cells (S048)
Outline: (§1)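 Cells were incubated for 48 h at 37 °C and 5% CO2 in RPMI-1640 with penicillin/streptomycin, L-glutamine and human serum, at 4 × 10^4 cells per well in 384-well plates with compounds pre-plated at five concentrations, one well each. These were primary mononuclear tumour cells, fresh or cryopreserved, Ficoll-isolated from blood or bone marrow or obtained from processed lymph node. Viability values are CellTiter-Glo luminescence relative to the median of 16 inner DMSO wells.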

[2] = test system: primary AML patient cells (S002)
Outline: as §1

[3] = test system: primary AML patient cells (S072)
Outline: as §1

[4] = test system: primary AML patient cells (S085)
Outline: as §1

[5] = test system: primary MCL patient cells (S068)
Outline: as §1

[6] = test system: primary MCL patient cells (S053)
Outline: as §1

[7] = test system: primary AML patient cells (S019)
Outline: as §1

[8] = test system: primary CLL patient cells (S031)
Outline: as §1

[9] = test system: primary AML patient cells (S089)
Outline: as §1

[10] = test system: primary AML patient cells (S079)
Outline: as §1

[11] = test system: primary CLL patient cells (S043)
Outline: as §1

[12] = test system: primary AML patient cells (S017)
Outline: as §1

[13] = test system: primary AML patient cells (S012)
Outline: as §1

[14] = test system: primary AML patient cells (S091)
Outline: as §1

[15] = test system: primary BL patient cells (S005)
Outline: as §1

[16] = test system: primary AML patient cells (S056)
Outline: as §1

[17] = test system: primary AML patient cells (S071)
Outline: as §1

[18] = test system: primary AML patient cells (S037)
Outline: as §1

[19] = test system: primary FL patient cells (S022)
Outline: as §1

[20] = test system: primary AML patient cells (S025)
Outline: as §1

Nc1ncn([C@H]2C[C@H](O)[C@@H](CO)O2)c(=O)n1 [Decitabine (Dacogen)]
viability ([1]; 0.024 µM): 0.967 | viability ([1]; 0.12 µM): 0.89 | viability ([1]; 0.6 µM): 0.938 | viability ([1]; 3 µM): 0.843 | viability ([1]; 15 µM): 0.82 | viability ([2]; 0.024 µM): 1.03 | viability ([2]; 0.12 µM): 1.03 | viability ([2]; 0.6 µM): 0.952 | viability ([2]; 3 µM): 0.892 | viability ([2]; 15 µM): 0.903 | viability ([3]; 0.024 µM): 1.02 | viability ([3]; 0.12 µM): 0.93 | viability ([3]; 0.6 µM): 0.964 | viability ([3]; 3 µM): 0.83 | viability ([3]; 15 µM): 0.811 | viability ([4]; 0.024 µM): 0.939 | viability ([4]; 0.12 µM): 0.904 | viability ([4]; 0.6 µM): 0.909 | viability ([4]; 3 µM): 0.807 | viability ([4]; 15 µM): 0.687 | viability ([5]; 0.024 µM): 0.948 | viability ([5]; 0.12 µM): 0.974 | viability ([5]; 0.6 µM): 0.926 | viability ([5]; 3 µM): 0.938 | viability ([5]; 15 µM): 0.775 | viability ([6]; 0.024 µM): 0.969 | viability ([6]; 0.12 µM): 0.824 | viability ([6]; 0.6 µM): 0.878 | viability ([6]; 3 µM): 0.807 | viability ([6]; 15 µM): 0.735 | viability ([7]; 0.024 µM): 1.11 | viability ([7]; 0.12 µM): 0.753 | viability ([7]; 0.6 µM): 1.04 | viability ([7]; 3 µM): 0.684 | viability ([7]; 15 µM): 0.918 | viability ([8]; 0.024 µM): 1.02 | viability ([8]; 0.12 µM): 0.916 | viability ([8]; 0.6 µM): 1.04 | viability ([8]; 3 µM): 0.869 | viability ([8]; 15 µM): 0.965 | viability ([9]; 0.024 µM): 0.729 | viability ([9]; 0.12 µM): 1.06 | viability ([9]; 0.6 µM): 0.632 | viability ([9]; 3 µM): 1.22 | viability ([9]; 15 µM): 0.642 | viability ([10]; 0.024 µM): 1.02 | viability ([10]; 0.12 µM): 0.953 | viability ([10]; 0.6 µM): 0.989 | viability ([10]; 3 µM): 0.889 | viability ([10]; 15 µM): 0.814 | viability ([11]; 0.024 µM): 0.965 | viability ([11]; 0.12 µM): 0.976 | viability ([11]; 0.6 µM): 0.975 | viability ([11]; 3 µM): 0.959 | viability ([11]; 15 µM): 0.899 | viability ([12]; 0.024 µM): 1.09 | viability ([12]; 0.12 µM): 0.954 | viability ([12]; 0.6 µM): 1.16 | viability ([12]; 3 µM): 0.918 | viability ([12]; 15 µM): 1.08 | viability ([13]; 0.024 µM): 1 | viability ([13]; 0.12 µM): 0.92 | viability ([13]; 0.6 µM): 0.943 | viability ([13]; 3 µM): 0.945 | viability ([13]; 15 µM): 0.929 | viability ([14]; 0.024 µM): 0.958 | viability ([14]; 0.12 µM): 1.09 | viability ([14]; 0.6 µM): 0.83 | viability ([14]; 3 µM): 0.913 | viability ([14]; 15 µM): 0.617 | viability ([15]; 0.024 µM): 0.833 | viability ([15]; 0.12 µM): 1.27 | viability ([15]; 0.6 µM): 0.828 | viability ([15]; 3 µM): 1.27 | viability ([15]; 15 µM): 0.8 | viability ([16]; 0.024 µM): 0.971 | viability ([16]; 0.12 µM): 0.876 | viability ([16]; 0.6 µM): 0.912 | viability ([16]; 3 µM): 0.8 | viability ([16]; 15 µM): 0.766 | viability ([17]; 0.024 µM): 0.995 | viability ([17]; 0.12 µM): 0.948 | viability ([17]; 0.6 µM): 0.934 | viability ([17]; 3 µM): 0.792 | viability ([17]; 15 µM): 0.756 | viability ([18]; 0.024 µM): 1.01 | viability ([18]; 0.12 µM): 0.925 | viability ([18]; 0.6 µM): 0.981 | viability ([18]; 3 µM): 0.91 | viability ([18]; 15 µM): 0.955 | viability ([19]; 0.024 µM): 1.12 | viability ([19]; 0.12 µM): 0.952 | viability ([19]; 0.6 µM): 1.01 | viability ([19]; 3 µM): 0.937 | viability ([19]; 15 µM): 0.962 | viability ([20]; 0.024 µM): 0.968 | viability ([20]; 0.12 µM): 0.953 | viability ([20]; 0.6 µM): 0.912 | viability ([20]; 3 µM): 0.694 | viability ([20]; 15 µM): 0.535
